Consider 1 compound from patent EP1333824B1, “TREATMENT OF SEXUAL DYSFUNCTION WITH BOMBESIN RECEPTOR ANTAGONISTS” (Warner-Lambert Company LLC, priority 2000, dated 2002).

Test [1] relates to Ovariectomised adult female Sprague Dawley rats. Nature of the test: Female rat sexual receptivity test (lordosis quotient, LQ). The test is classed as in vivo. The settings on record: Example 2; after vs before administration (paired t test); Compound (1) 10mg/kg i.p. 1h; quinelorane 6.25µg/kg s.c. 90min. How it is done:
Ovariectomised adult female Sprague Dawley rats (180-200g, from Charles River) were housed in groups of 6 in a reversed lighting system of 12h light:dark (lights off 7.00-19.00h). Two weeks after ovariectomy they were used for sexual activity tests. The experiments started at least 5h into the dark period.
It was administered intraperitoneally (i.p.) at a dose of 10mg/kg, in a dosing volume of 1ml/kg. […] Forty eight hours before testing, ovariectomised female rats (as described above), were primed with 5µg oestradiol benzoate dissolved in corn oil and injected subcutaneously. […] The females were placed with a series of vigorous male rats and subjected to 10 mounts.
The lordotic response of the animal was recorded and expressed as a percentage of the mounts (i.e. lordosis quotient, LQ), as previously described. Animals showing LQ<20 were considered non-receptive and were included in the study. Each rat was tested prior to administration of the compound and then tested similarly post-injection.
The above compound was dissolved in PEG200 vehicle and administered orally. […] Both compounds were administered in a 1ml/kg volume.
Forty eight hours before tests, the animals were primed with 5µg oestradiol benzoate (Sigma Chemical. Co. Ltd., UK) dissolved in corn oil and injected subcutaneously. The females were placed with a series of vigorous male rats and subjected to 10 mounts. The lordotic response of the animal was recorded and expressed as a percentage of the mounts (i.e. lordosis quotient, LQ). […] Animals showing higher LQ were not included in the study. Each rat was tested prior to administration of the compound and then tested similarly at 1h and 90min post-injection of the above compound or quinelorane respectively.

A further test has as its system conscious male rat. Nature of the test: Penile intracavernosal pressure in the conscious male rat (telemetry). The format is in vivo. On the procedure:
In addition to treating women with FSD, bombesin antagonists will be useful in treating male erectile dysfunction (MED. Both the non-selective BB1/2 antagonists (Compound 1; 10mg/kg sc) and the selective BB1 receptor antagonist (Compound 3; 15mg/kg sc) is pro-erectile in a conscious rat model of penile erection (Figures 24 and 25). Erectile responses were recorded by measuring intracavernosal pressure using surgically implanted telemetric device. The specific details the surgical procedures, data acquisition and analysis can be found in detail in Bemabe 1999.
Compound 1 and compound 3 were dissolved in 50% β-cyclodextrin in saline. They were administered at a dose of 15mg/kg subcutaneously (sc). […] These increases equate to penile erection. Both Compounds 1 and 3 induced a number of erections in a similar manner to those observed with apomorphine or melanotan-II - both of which are clinically proven agents that are effective in the treatment of MED. Moreover the amplitude of the increases observed were similar to those observed with apomorphine or melanotan-II. The mechanism of action is thought to be similar to the effects on female genital flow ie CNS potentiation of the descending neuronal pathways that control penile erection.

The next test deals with Sprague Dawley male rats. Nature of the test: Sexual behaviour of fluoxetine-induced sexually dysfunctional male rats. Conditions: fluoxetine 20mg/kg i.p. 3 days (vs vehicle+vehicle). The test is classed as in vivo, rat. On the procedure:
Sprague Dawley male rats (Charles River, UK) were kept, 4 rats per cage, in a reversed lighting regime (12:12 hours, lights off at 5.00 h), with free access to food and water. The rats were pre-selected by being presented with a receptive female at 4 days intervals, i.e. every third day (having 2 clear days between presentations) until completing 6-7 trials of baseline determination. The animals showing consistently vigorous behaviour (ejaculatory latencies <300s) were chosen for further experiments. Animals were treated for 3 consecutive days with either vehicle (water) or fluoxetine (20mg/kg, i.p., in a 2ml/kg dosing volume). […] All treatments were administered i.p. in a 1ml/kg volume, 1h before tests.
For all the sexual behaviour tests, the males were placed in an observation arena (50-60 cm diameter), starting 5 hours into the dark cycle and observed under red illumination. Three to 4 minutes after placing the male in the arena, a receptive female (ovariectomised, bearing a 7 mm Silastic implant of oestradiol benzoate) was introduced to the arena and the following parameters noted: Mount Latency: time (in seconds) taken between introduction of female and first mount. A maximum time of 15 minutes (900 seconds) was allowed, and the test terminated if no mounts were recorded within that time (Figure 16), Ejaculation Latency: time (in seconds) taken from first intromission to ejaculation. A maximum time of 30 minutes (1800 seconds) was given, and the test terminated if ejaculation was not achieved in that time (Figure 17), Percentage of males achieving ejaculation within 30 minutes was calculated (Figure 18).
A one-way ANOVA followed by Dunnett's t test was used to compare the fluoxetine+vehicle group and other groups for mount and ejaculatory latencies. Percentage of animals ejaculating was analysed using a Chi-square test followed by Fisher's test. (*: P<0.05, **: P<0.01, ***: P<0.001; n=15-19).

The mark [2] stands for this setting: day 4 Compound (1) 15mg/kg or yohimbine 2mg/kg i.p. 1h before tests (vs fluoxetine+vehicle).

The structures appear in SMILES notation.

For the compound `COc1ccc(C2(CNC(=O)[C@](C)(Cc3c[nH]c4ccccc34)NC(=O)Nc3ccc([N+](=O)[O-])cc3)CCCCC2)nc1` [Compound (1), (S) 3-(1H-Indol-3-yl)-N-[1-(5-methoxy-pyridin-2-yl)-cyclohexyl-methyl]-2-methyl-2-[3-(4-nitro-phenyl)-ureido]-propionamide], the “lordosis quotient (LQ)” value in test [1] is recorded as “significant (P<0.05) stimulatory effect on the LQ”. The “erectile response (penile erection)” value in the test with conscious male rat (Compound 1 10mg/kg sc, Compound 3 15mg/kg sc) was “pro-erectile”. In the test on conscious male rat (one hour after 10mg/kg sc Compound 1, 45 minutes after 15mg/kg sc compound 3), the intracavernosal pressure entry is reported as “significant increases in intracavernosal pressure”. Besides, in the test on Sprague Dawley male rats (setting [2]), the Ejaculation latency result is given as “significantly decreased” and the Mount latency entry is “significantly decreased”. For the same compound, the “percentage of animals ejaculating” value in the test with Sprague Dawley male rats (within 30 minutes, day 4 Compound (1) 15mg/kg or yohimbine 2mg/kg i.p. (vs fluoxetine+vehicle)) is “increasing the percentage of animals ejaculating”.
